Laboratory results from US8476264B2, “N-(3-(2-amino-6,6-difluoro-4,4A,5,6,7,7A-hexahydro-cyclopenta[E][1,3]oxazin-4-yl)-phenylamides as BACE1 inhibitors” (Hoffmann-La Roche Inc., priority 2011, dated 2013).

Columns and labels:
[1] = biological target: T1, BACE1 (Homo sapiens, UniProt P56817); experiment: Cellular Aβ-lowering assay (Aβ40 ELISA); format: cell-based; conditions: HEK293 cells stably expressing human APP wt (APP695); Aβ40 in supernatant after 18-20 hrs; read-out: BACE1 cell act. Aβ40 IC50
T1 construct: Human HEK293 cells which are stably transfected with a vector expressing a cDNA of the human APP wt gene (APP695); endogenous in cells; host or cells: HEK293 stably transfected with human APP695 wt
How it was run: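 Secreted Aβ40 in the supernatant was measured by sandwich ELISA (C-terminal Aβ40 capture, HRP-4G8 detection, 450 nm) against an Aβ peptide standard curve.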

[2] = Detection of glutathione conjugates; format: in vitro ADME, human; design: key: NF: in vitro no significant adduct formation relative to control; conditions: in vitro, relative to control
Description: Detection of Glutathione Conjugates
The assay conditions for the detection of glutathione conjugates follow the procedure described by C. M. Dieckhaus et al.

T1 sequence (P56817 46-501): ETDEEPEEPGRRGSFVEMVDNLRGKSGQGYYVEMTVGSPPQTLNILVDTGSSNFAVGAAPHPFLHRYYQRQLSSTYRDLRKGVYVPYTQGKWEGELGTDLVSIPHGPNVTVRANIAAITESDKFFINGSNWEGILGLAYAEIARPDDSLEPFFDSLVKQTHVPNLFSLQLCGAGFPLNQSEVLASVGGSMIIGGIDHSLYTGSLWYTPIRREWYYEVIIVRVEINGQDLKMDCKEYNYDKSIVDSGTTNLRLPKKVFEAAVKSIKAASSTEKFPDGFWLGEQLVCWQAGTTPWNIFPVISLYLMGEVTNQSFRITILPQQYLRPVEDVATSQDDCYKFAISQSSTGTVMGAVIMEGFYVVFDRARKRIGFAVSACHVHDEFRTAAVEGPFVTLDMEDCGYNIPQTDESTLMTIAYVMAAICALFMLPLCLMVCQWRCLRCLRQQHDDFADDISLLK

N#Cc1ccc(C(=O)Nc2ccc(F)c([C@@]3(C(F)F)N=C(N)O[C@@H]4CC(F)(F)C[C@@H]43)c2)nc1 [Example 36, 5-Cyano-pyridine-2-carboxylic acid [(S)-3-((1R,2R)-2-amino-4-difluoromethyl-6,6-difluoro-4,4a,5,6,7,7a-hexahydro-cyclopenta[e][1,3]oxazin-4-yl)-4-fluoro-phenyl]-amide]
IC50 [1]: 14.5 nM | GSH human (glutathione adduct formation) [2]: NF

NC1=N[C@](CF)(c2cc(NC(=O)c3cnc(C(F)F)cn3)ccc2F)[C@H]2CC(F)(F)C[C@H]2O1 [Example 24, 5-Difluoromethyl-pyrazine-2-carboxylic acid [(S)-3-((1R,2R)-2-amino-6,6-difluoro-4-fluoromethyl-4,4a,5,6,7,7a-hexahydro-cyclopenta[e][1,3]oxazin-4-yl)-4-fluoro-phenyl]-amide]
IC50 [1]: 7.9 nM | GSH human (glutathione adduct formation) [2]: NF

COc1cnc(C(=O)Nc2ccc(F)c([C@@]3(C(F)F)N=C(N)O[C@@H]4CC(F)(F)C[C@@H]43)c2)cn1 [Example 42, 5-Methoxy-pyrazine-2-carboxylic acid [(S)-3-((1R,2R)-2-amino-4-difluoromethyl-6,6-difluoro-4,4a,5,6,7,7a-hexahydro-cyclopenta[e][1,3]oxazin-4-yl)-4-fluoro-phenyl]-amide]
IC50 [1]: 30 nM | GSH human (glutathione adduct formation) [2]: NF

N#Cc1ccc(C(=O)Nc2ccc(F)c([C@@]3(CF)N=C(N)O[C@@H]4CC(F)(F)C[C@@H]43)c2)nc1 [Example 3, 5-Cyano-pyridine-2-carboxylic acid [(S)-3-((1R,2R)-2-amino-6,6-difluoro-4-fluoromethyl-4,4a,5,6,7,7a-hexahydro-cyclopenta[e][1,3]oxazin-4-yl)-4-fluoro-phenyl]-amide]
IC50 [1]: 1.5 nM | GSH human (glutathione adduct formation) [2]: NF

NC1=N[C@](CF)(c2cc(NC(=O)c3ccc(F)cn3)ccc2F)[C@H]2CC(F)(F)C[C@H]2O1 [Example 7, 5-Fluoro-pyridine-2-carboxylic acid [(S)-3-((1R,2R)-2-amino-6,6-difluoro-4-fluoromethyl-4,4a,5,6,7,7a-hexahydro-cyclopenta[e][1,3]oxazin-4-yl)-4-fluoro-phenyl]-amide]
IC50 [1]: 16.6 nM | GSH human (glutathione adduct formation) [2]: NF
